“And” between values parts separate entries of the source, which are not always exact repeats. Equal values may be shown once. Read-outs that look alike come from different tables or passages of the source.
Columns and labels:
L1210 cells = test: DNA cleavage (intact chromatin precipitation) in L1210 cells; format: cell-based, murine
Method: FIG. 19. Comparison of the concentration-dependent effects of novel TT analogs and known DNA-damaging anticancer drugs on DNA cleavage in L1210 cells in vitro. […] After lysing the cells in HLB containing 0.2% Triton X-100, the detergent-soluble DNA fragments present in the supernatants and the intact chromatin DNA remaining in the pellets were separated by centrifugation and their radioactivity estimated by LSC. Results are expressed as [cpm in supernatant/cpm in supernatant+pellet]×100 at 24 h. For untreated controls (5.3±0.6% DNA fragmentation; striped area), the supernatant is 741±79 cpm and the pellet is 13,293±1,446 cpm.
FIG. 20. Comparison of the abilities of novel TT analogs to induce DNA cleavage in L1210 cells in vitro. Cells containing prelabeled DNA were incubated at 37° C. for 24 h in the presence or absence (control) of 7 μM concentrations of the indicated compounds. The protocol of the experiment and the determination of the results were identical to those of FIG. 12.
FIG. 22. Irreversibility of the effects of novel TT analogs and known DNA-damaging anticancer drugs on DNA cleavage in L1210 cells in vitro. Cells containing prelabeled DNA were incubated at 37° C. for various periods of time in the presence or absence (control) of 10 μM TT1 or TT2 and 1.6 μM DAU or CPT. The protocol of the experiment and the determination of the results at 24 h were identical to those of FIG. 19, except that the drugs were either maintained in the medium for the whole 24-h period of incubation (open) or removed after the first 3 (striped) and 8 h (closed). After spinning and washing the appropriate samples to remove the drugs, cells were resuspended in 0.5 ml of fresh medium to complete the 24-h period of incubation in the absence of drugs. Vehicle-treated controls were similarly spun and washed at 3 and 8 h. Bars: means±SD (n=3).
(§1) Drug-induced DNA cleavage was determined by intact chromatin precipitation, using L1210, HL-60-S, HL-60-RV and HL-60-R8 cells which were prelabeled with 1 μCi of ^3H-thymidine for 2 h at 37° C., washed with 3×1 ml of ice-cold PBS, collected by centrifugation, and resuspended in fresh FCS-containing RPMI 1640 medium at a density of about 1×10^6 cells/0.5 ml for L1210 and 0.5×10^6 cells/0.5 ml for HL cells. Except when otherwise specified, such cells containing prelabeled DNA were then exposed for 24 h to TTs and drugs known to induce DNA fragmentation. After centrifugation at 200×g for 10 min to discard the drugs and wash the cells, the intact cell pellets were lysed for 30 min in 0.5 ml of HLB, centrifuged at 12,000×g for 30 min to collect the supernatants, and resuspended in 0.5 ml of HLB. After another similar centrifugation, the radioactivities in the pooled supernatants (detergent-soluble low molecular weight DNA fragments) and the pellet (intact chromatin DNA) were determined by LSC: % DNA fragmentation=[cpm in supernatant/cpm in supernatant+pellet]×100. Before being counted in 6 ml of Bio-Safe NA, the intact pelleted chromatin was incubated for 2 h at 60° C. in the presence of 0.6 ml of NCS tissue solubilizer (Amersham).

HL-60-S cells [1] = test: DNA cleavage in HL-60-S cells; format: cell-based, human; conditions: 24 h
Method: (§2) FIG. 23. Comparison of the concentration-dependent inductions of DNA cleavage by DAU (open symbols in A) and TT2 (closed symbols in B) at 24 h in HL-60-S (circles), HL-60-RV (squares) and HL-60-R8 (triangles) cells containing ^3H-prelabeled DNA in vitro. Results are expressed as [cpm in supernatant/cpm in supernatant+pellet]×100 at 24 h. For untreated controls (14.7±1.7% DNA fragmentation, striped areas), the supernatant (DNA fragments) is 12,815±1,358 cpm and the pellet (intact DNA) is 74,406±9,078 cpm.
(§3) The MDR HL-60-RV and HL-60-R8 cells were developed in Melvin S. Center's laboratory (Kansas State University) and similarly maintained in RPMI 1640 medium in the absence of drugs (Marsh W, et al, Cancer Res 46: 4053-4057, 1986; McGrath T et al, and Center M S: Biochem Biophys Res Commun 145: 1171-1176, 1987; Marsh W and Center M S: Cancer Res 47: 5080-5086, 1987; McGrath T, et al, Biochem Pharmacol 38: 3611-3619, 1989; Marquardt D, et al, Cancer Res 50: 1426-1430, 1990; Marquardt D and Center M S: J Natl Cancer Inst 83: 1089-1109, 1991; Krishnamachary N and Center M S; Cancer Res 53: 3658-3661, 1993). Every 4 weeks, these HL-60-RV and HL-60-R8 sublines were exposed to 41 nM DAU for 48 h to stabilize their MDR phenotype. This concentration of DAU, which is not cytotoxic to MDR HL-60 sublines, was removed from the culture medium at least 48 h before experimentation. […] RFs were determined by dividing the IC50 of the MDR cells by that of the sensitive WT parent cell line.
as §1

HL-60-S cells [2] = test: DNA synthesis in HL-60-S cells; format: cell-based, human; conditions: for IC50: read-out: IC50, inhibition of DNA synthesis in HL-60-S cells
HL-60-RV cells = test: DNA cleavage in HL-60-RV cells; format: cell-based, human; conditions: 24 h
Method: as §2
as §3, with “phenotype.” for “phenotype. This concentration of DAU, which is not cytotoxic to MDR HL-60 sublines, was removed from the culture medium at least 48 h before experimentation.”, “line. […]” for “line.”

Compound | DNA fragmentation at 24 h after short exposure (L1210 cells; 10 μM, drug removed after 3 and 8 h) | DNA cleavage (% DNA fragmentation) (L1210 cells; 10 μM, whole 24 h) | concentration at which induction of DNA cleavage peaks (L1210 cells; DNA cleavage at 24 h, internucleosomal fragmentation at 48-72 h) [µM] | times higher TT2 than DAU concentrations needed for the same peak of DNA cleavage (L1210 cells; L1210, 24 h) | DNA cleavage, % above control level (HL-60-S cells [1]; 4 μM) [%] | DNA cleavage, % above control level (HL-60-S cells [1]; 10 μM) [%] | DNA cleavage, % below control level (HL-60-S cells [1]; 25 μM) [%] | times greater TT2 than DAU concentrations needed for more than 50% of DNA cleavage (HL-60-S cells [1]; HL-60-S) | times TT2 inhibits DNA synthesis less effectively than DAU (HL-60-S cells [2]; HL-60-S) [times] | IC50 (HL-60-S cells [2]) [µM] | reduction of the peak of maximal DNA cleavage relative to HL-60-S cells (HL-60-RV cells) [%] | DNA cleavage (% DNA fragmentation) (L1210 cells; 1.6 μM, 24 h) [%] | DNA fragmentation at 24 h, drug maintained or removed (L1210 cells; 1.6 μM, maintained or removed after 3 or 8 h) | DNA cleavage, % above control level (HL-60-S cells [1]; 1.6 μM, control 15% DNA fragmentation) [%] | DNA cleavage, % below control level (HL-60-S cells [1]; 10 μM) [%] | DNA cleavage, % above control level (submaximal) (HL-60-S cells [1]; 0.04-0.64 μM DAU) | IC50 (HL-60-S cells [2]; Homo sapiens) [µM]
COC1=CC(=O)C2=C(C1=O)C1C3=C(C(=O)C=CC3=O)C2c2ccccc21 (centres unmarked) [TT2, 2-Methoxy-9,10-dihydro-9,10-[1′,2′]benzenoanthracene-1,4,5,8-tetraone] | 58-67% | 61% and 63% | 4 to 10 | about 6 times | 37 | 14 | 11 | at least 2.5 times | 9 | 1.8 | 39 | – | – | – | – | – | –
COc1cccc2c1C(=O)c1c(O)c3c(c(O)c1C2=O)C[C@@](O)(C(C)=O)C[C@@H]3O[C@H]1C[C@H](N)[C@H](O)[C@H](C)O1 [DAU, daunomycin, reference compound] | – | – | – | – | 18 | – | 14 | – | – | – | 79 | 45 | 33-41% | 67 | 11 | 11-58% | 0.21
